Among the data in US11814367B2, “Inhibitors of glycogen synthase 1 (GYS1) and methods of use thereof” (Maze Therapeutics, Inc., priority 2021, dated 2023) are IC50 values, retold here.

Structures are written as SMILES.

hGYS1 enzyme (recombinant hGYS1/GN1 protein), sequence (P13807 whole entry): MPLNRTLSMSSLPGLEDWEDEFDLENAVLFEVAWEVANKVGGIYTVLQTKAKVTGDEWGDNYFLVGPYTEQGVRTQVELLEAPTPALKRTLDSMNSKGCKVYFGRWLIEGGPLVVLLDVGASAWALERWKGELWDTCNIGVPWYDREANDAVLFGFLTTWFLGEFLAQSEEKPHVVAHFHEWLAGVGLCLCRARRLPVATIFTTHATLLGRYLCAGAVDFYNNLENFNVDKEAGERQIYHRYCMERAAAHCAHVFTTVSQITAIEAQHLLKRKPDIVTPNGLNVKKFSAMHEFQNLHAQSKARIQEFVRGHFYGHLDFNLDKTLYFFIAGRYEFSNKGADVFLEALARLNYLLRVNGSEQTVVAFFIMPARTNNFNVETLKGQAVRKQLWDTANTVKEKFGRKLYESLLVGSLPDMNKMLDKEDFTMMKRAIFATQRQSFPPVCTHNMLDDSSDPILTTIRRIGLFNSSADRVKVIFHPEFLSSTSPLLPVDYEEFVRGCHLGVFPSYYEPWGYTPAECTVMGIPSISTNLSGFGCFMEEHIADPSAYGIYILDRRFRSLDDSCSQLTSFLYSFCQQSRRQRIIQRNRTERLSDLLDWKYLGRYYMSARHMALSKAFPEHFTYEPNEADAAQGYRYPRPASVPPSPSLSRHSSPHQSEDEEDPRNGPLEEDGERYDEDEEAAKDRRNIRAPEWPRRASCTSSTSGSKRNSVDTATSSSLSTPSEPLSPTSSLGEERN
hGYS1 enzyme (recombinant hGYS1/GN1 protein), sequence (P46976 whole entry partner): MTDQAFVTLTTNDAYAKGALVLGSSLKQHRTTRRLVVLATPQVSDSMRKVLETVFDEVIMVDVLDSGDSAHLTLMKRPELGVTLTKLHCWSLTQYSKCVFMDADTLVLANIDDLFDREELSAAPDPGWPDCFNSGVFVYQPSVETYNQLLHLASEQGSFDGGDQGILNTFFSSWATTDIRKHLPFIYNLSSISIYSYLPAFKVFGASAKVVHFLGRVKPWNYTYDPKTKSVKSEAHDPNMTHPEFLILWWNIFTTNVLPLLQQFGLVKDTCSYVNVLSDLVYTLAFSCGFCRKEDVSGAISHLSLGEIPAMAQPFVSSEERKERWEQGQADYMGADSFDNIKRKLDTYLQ

The target in the experiment is hGYS1 enzyme (recombinant hGYS1/GN1 protein) (Homo sapiens (Human), UniProt P13807). The experiment can be described thus: GYS1 coupled enzyme assay (PK/LDH). The experiment is classed as biochemical. As to conditions: hGYS1/GN1 50 nM, UDP-Glucose 0.8 mM, G6P 1 mM; geometric mean of at least 2 runs. The text has this:
The GYS1 coupled enzyme assay is a kinetic biochemical assay that indirectly quantifies the rate of glycogen synthesis by coupling the conversion of GYS1 substrate UDP-glucose into UDP with downstream enzymatic reactions. UDP is released from UDP-glucose as glucose monomers are linked into the growing glycogen strand by GYS1. The coupled assay then proceeds with pyruvate kinase utilizing UDP and phospho(enol)pyruvate (PEP) to form pyruvate. Lactate dehydrogenase then converts pyruvate and NADH into lactate and NAD+. Oxidation of NADH to NAD+ can be measured continuously with a plate reader by quantifying the decrease in NADH absorbance at 340 nm over time.
Compounds that inhibit the hGYS1 enzyme and, subsequently, the downstream conversion of NADH to NAD+, were tested using assay ready plates (black, clear bottom 384 well plates) in a final DMSO reaction volume of 2.5% DMSO. The Assay Buffer contained 50 mM Tris pH 7.5, 2 mM MgCl2, and 100 mM KCl. Fresh stocks of BSA at a final concentration of 0.02% and TCEP at 1 mM were added before splitting buffer into hGYS1 buffer and substrate buffer. To the hGYS1 buffer, rabbit liver glycogen was added at a final concentration of 0.2% glycogen. Glucose-6-Phosphate was added at 1 mM, recombinant hGYS1/GN1 protein was added at 50 nM to the substrate buffer, phosphoenolpyruvate (PEP) was added at 2 mM, UDP-Glucose was added at 0.8 mM, NADH) was added at 0.6 mM, and Pyruvate Kinase/Lactate Dehydrogenase was added at 20 units/mL. The reaction was initiated by mixing hGYS1 buffer and substrate buffer at a 1:1 ratio. Both buffers were plated using a liquid dispensing device with hGYS1 buffer plated first followed by the substrate buffer. Plates were spun briefly to eliminate air bubbles and are immediately read in continuous mode at an absorbance of 340 nm, for 10 time points in one-minute increments, for a total of 10 minutes. The slope from these 10 time points was normalized to the positive and negative control wells. The duplicate % inhibition values are then averaged and fit to a Hill equation for dose response according to the Levenberg-Marquardt algorithm with the Hill equation maximum set to 100 and the minimum set to 0.
Unless otherwise specified, IC50 values are reported as the geometric mean of at least 2 assay runs on separate days. Each run represents the average of a technical replicate, where each compound was assayed twice in the same plate. […] A superscript “#” symbol in Table 2 indicates results from a single assay run.
On to `CC(=O)N1CCCC(C)(C(=O)N2C[C@H](F)C[C@H]2C(=O)N[C@@H](c2ccccc2)c2ccc(C(C)C)cc2)CC1` (stereo partly drawn) [Compound 181, (2S,4R)-1-(1-acetyl-4-methylazepane-4-carbonyl)-4-fluoro-N-[(S)-phenyl[4-(propan-2-yl)phenyl]methyl]pyrrolidine-2-carboxamide], for which the 50% inhibitory concentration (IC50) (as a rule, the concentration that inhibits the measured activity by half) is 449 nM.

Turning to `CC(=O)N1CCC2(CC2C(=O)N2C[C@H](F)C[C@H]2C(=O)N[C@@H](c2ccccc2)c2ccc(C(C)C)cc2)C1` (stereo partly drawn) [Compound 156, (2S,4R)-1-{5-acetyl-5-azaspiro[2.4]heptane-1-carbonyl}-4-fluoro-N-[(S)-phenyl[4-(propan-2-yl)phenyl]methyl]pyrrolidine-2-carboxamide], the half-inhibitory concentration (IC50) was found to be 304 nM.

For `Cc1cnn(C(C)C(=O)N2C[C@H](F)C[C@H]2C(=O)N[C@@H](c2ccccc2)c2ccc(C(C)C)cc2)c1` (stereo partly drawn) [Compound 127, (2S,4R)-4-fluoro-1-[2-(4-methyl-1H-pyrazol-1-yl)propanoyl]-N-[(S)-phenyl[4-(propan-2-yl)phenyl]methyl]pyrrolidine-2-carboxamide], the concentration for half-maximal inhibition (IC50) was determined as 318 nM.

On to `CC(C)c1ccc([C@@H](NC(=O)[C@@H]2C[C@@H](F)CN2C(=O)Cc2ccncc2)c2ccccc2)cc1` [Compound 39, (2S,4R)-4-fluoro-N-[(S)-phenyl[4-(propan-2-yl)phenyl]methyl]-1-[2-(pyridin-4-yl)acetyl]pyrrolidine-2-carboxamide], for which the IC50 was determined as 50 nM.

As to `CC(=O)N1C[C@H](F)C[C@H]1C(=O)N[C@@H](c1ccc(C(C)C)cc1)c1ccn[nH]1` [Compound 614, (2S,4R)-1-acetyl-4-fluoro-N-[(S)-[4-(propan-2-yl)phenyl](1H-pyrazol-5-yl)methyl]pyrrolidine-2-carboxamide], the IC50 worked out at 1150 nM.

For `CC(=O)N(C)C(C)C(=O)N1C[C@H](F)C[C@H]1C(=O)N[C@@H](c1ccccc1)c1ccc(C(C)C)cc1` (stereo partly drawn) [Compound 71, (2S,4R)-4-fluoro-1-[2-(N-methylacetamido)propanoyl]-N-[(S)-phenyl[4-(propan-2-yl)phenyl]methyl]pyrrolidine-2-carboxamide], the IC50 was found to be 375 nM.

Consider `CC(C)c1ccc([C@@H](NC(=O)[C@@H]2C[C@@H](F)CN2C(=O)c2ccc3c(c2)NC(=O)CO3)c2ccccc2)cc1` [Compound 122, (2S,4R)-4-fluoro-1-(3-oxo-3,4-dihydro-2H-1,4-benzoxazine-6-carbonyl)-N-[(S)-phenyl[4-(propan-2-yl)phenyl]methyl]pyrrolidine-2-carboxamide], for which the half-inhibitory concentration (IC50) came to 989 nM.

On to `CC(C)c1ccc([C@@H](NC(=O)[C@@H]2C[C@@H](F)CN2C(=O)c2cccn3c(=O)[nH]nc23)c2ccccc2)cc1` [Compound 74, (2S,4R)-4-fluoro-1-{3-oxo-2H,3H-[1,2,4]triazolo[4,3-a]pyridine-8-carbonyl}-N-[(S)-phenyl[4-(propan-2-yl)phenyl]methyl]pyrrolidine-2-carboxamide], for which the half-maximal inhibitory concentration (IC50) stood at 705 nM.

With `CC(=O)N1CC(Oc2ccc(C(=O)N3C[C@H](F)C[C@H]3C(=O)N[C@@H](c3ccccc3)c3ccc(C(C)C)cc3)cc2)C1` [Compound 112, (2S,4R)-1-{4-[(1-acetylazetidin-3-yl)oxy]benzoyl}-4-fluoro-N-[(S)-phenyl[4-(propan-2-yl)phenyl]methyl]pyrrolidine-2-carboxamide], the 50% inhibitory concentration (IC50) worked out at 854 nM.

Consider `CC(C)c1ccc([C@@H](NC(=O)[C@@H]2C[C@@H](F)CN2C(=O)Cc2cnoc2)c2ccccc2)cc1` [Compound 230, (2S,4R)-4-fluoro-1-[2-(1,2-oxazol-4-yl)acetyl]-N-[(S)-phenyl[4-(propan-2-yl)phenyl]methyl]pyrrolidine-2-carboxamide], for which the 50% inhibitory concentration (IC50) worked out at 117 nM.

Turning to `CC(C)c1ccc([C@@H](NC(=O)[C@@H]2C[C@@H](F)CN2C(=O)C(=O)Nc2cccnc2)c2ccccc2)cc1` [Compound 708, (2S,4R)-4-fluoro-N-[(S)-phenyl[4-(propan-2-yl)phenyl]methyl]-1-{[(pyridin-3-yl)carbamoyl]carbonyl} pyrrolidine-2-carboxamide], the IC50 amounted to 2510 nM.

As to `CC(C)c1ccc(C(NC(=O)[C@@H]2C[C@@H](F)CN2C(=O)Cc2cnn[nH]2)c2cccc(N)n2)cc1F` (single isomer, unassigned) [Compound 621, (2S,4R)-N-[(R) or (S)-(6-aminopyridin-2-yl)[3-fluoro-4-(propan-2-yl)phenyl]methyl]-4-fluoro-1-[2-(1H-1,2,3-triazol-5-yl)acetyl]pyrrolidine-2-carboxamide], the half-inhibitory concentration (IC50) was 555 nM.

Take `CC(C)c1ccc([C@@H](NC(=O)[C@@H]2C[C@@H](F)CN2C(=O)C2CCC3CCC(=O)N3C2)c2ccccc2)cc1` (stereo partly drawn) [Compound 139, (2S,4R)-4-fluoro-1-(3-oxo-octahydroindolizine-6-carbonyl)-N-[(S)-phenyl[4-(propan-2-yl)phenyl]methyl]pyrrolidine-2-carboxamide]: the IC50 came out at 357 nM.

In the case of `CC(=O)N1CCO[C@@H](C)[C@@H]1C(=O)N1C[C@H](F)C[C@H]1C(=O)N[C@@H](c1ccccc1)c1ccc(C(C)C)cc1` [Compound 159, (2S,4R)-1-[(2S,3R)-4-acetyl-2-methylmorpholine-3-carbonyl]-4-fluoro-N-[(S)-phenyl[4-(propan-2-yl)phenyl]methyl]pyrrolidine-2-carboxamide], the IC50 stood at 740 nM.

As for `O=C(N[C@@H](c1ccccc1)c1ccc(C2CC2)c(F)c1)[C@@H]1[C@H]2C[C@H]2CN1C(=O)Cc1cnn[nH]1` [Compound 440, (1S,2S,5R)-N-[(S)-(4-cyclopropyl-3-fluorophenyl)(phenyl)methyl]-3-[2-(1H-1,2,3-triazol-5-yl)acetyl]-3-azabicyclo[3.1.0] hexane-2-carboxamide], the IC50 worked out at 447 nM.

Consider `CC(C)c1ccc([C@@H](NC(=O)[C@@H]2C[C@@H](F)CN2C(=O)Cc2[nH]nnc2N2CCN(C(=O)OC(C)(C)C)CC2)c2ccccc2)cc1F` [Compound 370, tert-butyl 4-(5-{2-[(2S,4R)-4-fluoro-2-{[(S)-[3-fluoro-4-(propan-2-yl)phenyl](phenyl)methyl]carbamoyl}pyrrolidin-1-yl]-2-oxoethyl}-1H-1,2,3-triazol-4-yl)piperazine-1-carboxylate], for which the concentration for half-maximal inhibition (IC50) was determined as 569 nM.

Turning to `CC(=O)N1C[C@H](F)C[C@H]1C(=O)NC(c1cccc(-c2ccno2)c1)c1ccc(C(C)C)c(F)n1` (single isomer, unassigned) [Compound 698, (2S,4R)-1-acetyl-4-fluoro-N-[(S) or (R)-[6-fluoro-5-(propan-2-yl)pyridin-2-yl][3-(1,2-oxazol-5-yl)phenyl]methyl] pyrrolidine-2-carboxamide], the IC50 came to 151 nM.

On to `CC(=O)N1CCC2(CC(C(=O)N3C[C@H](F)C[C@H]3C(=O)N[C@@H](c3ccccc3)c3ccc(C(C)C)cc3)=NO2)C1` (stereo partly drawn) [Compound 4, (2S,4R)-{7-acetyl-1-oxa-2,7-diazaspiro[4.4]non-2-ene-3-carbonyl}-4-fluoro-N-[(S)-phenyl[4-(propan-2-yl)phenyl]methyl]pyrrolidine-2-carboxamide], for which the IC50 is 998 nM.

Turning to `CC(=O)N1[C@H](C(=O)N[C@@H](c2ccccc2)c2ccc(C3CC3)c(F)c2)C[C@@H]2C[C@@H]21` [Compound 420, (1S,3S,5S)-2-acetyl-N-[(S)-(4-cyclopropyl-3-fluorophenyl)(phenyl)methyl]-2-azabicyclo[3.1.0] hexane-3-carboxamide], the IC50 is 3560 nM.

As to `Cc1cc(C(C)C)ccc1[C@@H](NC(=O)[C@@H]1C[C@@H](F)CN1C(=O)Cc1ncco1)c1ccccc1` [Compound 663, (2S,4R)-4-fluoro-N-[(S)-[2-methyl-4-(propan-2-yl)phenyl](phenyl)methyl]-1-[2-(1,3-oxazol-2-yl)acetyl]pyrrolidine-2-carboxamide], the IC50 worked out at 2020 nM.

As to `CC(=O)NCC(=O)N1CCC[C@H]1C(=O)N[C@@H](c1ccccc1)c1ccc(C(C)C)cc1` [Compound 212, (2S)-1-(2-acetamidoacetyl)-N-[(S)-phenyl[4-(propan-2-yl)phenyl]methyl]pyrrolidine-2-carboxamide], the half-maximal inhibitory concentration (IC50) came to 95 nM.

Consider `CC(C)c1ccc([C@@H](NC(=O)[C@@H]2C[C@@H](F)CN2C(=O)CN2CCNCC2)c2ccccc2)cc1` [Compound 234, (2S,4R)-4-fluoro-N-[(S)-phenyl[4-(propan-2-yl)phenyl]methyl]-1-[2-(piperazin-1-yl)acetyl]pyrrolidine-2-carboxamide], for which the 50% inhibitory concentration (IC50) was determined as 695 nM.

For `CC(Cc1ccccn1)C(=O)N1C[C@H](F)C[C@H]1C(=O)N[C@@H](c1ccccc1)c1ccc(C(C)C)cc1` (stereo partly drawn) [Compound 132, (2S,4R)-4-fluoro-1-[2-methyl-3-(pyridin-2-yl)propanoyl]-N-[(S)-phenyl[4-(propan-2-yl)phenyl]methyl]pyrrolidine-2-carboxamide], the IC50 amounted to 99 nM.
